Measured values published in patent US6235791A, “Use of amines to produce drugs for preventing tumor cell proliferation” (Sanofi-Synthelabo, priority 1996, dated 2001).

Experiments:
MDA-MB231 cells = assay: tumours developed in ovariectomized nude mice from MDA-MB231 cells; type: in vivo; details: 500 μg SR 31747 + E2 daily intraperitoneally, to day 92
Procedure: The inoculation and treatment of the animals were carried out as follows:
The animals used are "nude" female athymic mice, which may or may not have been ovariectomized, obtained at 4 weeks old (R. Janvier). Before inoculating the hormone-sensitive mammary cells (MCF-7, MCF-7AZTD5), the animals receive 10 μl pf ethanolic 10 ^-5 oestradiol solution applied percutaneously. The treatment is repeated three times over one week. One million cells suspended in 100 μl of PBS/Ca are inoculated subcutaneously above each of the hips. The following day, the animals receive 200 μl of injection solution (ethanol/Tween 80/physiological saline, 1/1/18, vol/vol) containing the various reactions at the predefined concentrations. The injections are made intraperitoneally and are repeated every day.
FIGS. 1 and 2 indicate the effect of SR 31747 on tumours developed in ovariectomized "nude" mice from MDA-MB231 cells.
Each mouse receives 5×10^6 MDA-MB231 cells above each hip (i.e. 2 points of inoculation per mouse). The animals are then treated daily via the intraperitoneal route and receive 500 μg SR 31747+0.003 μg E2 (20 mice). The control batch receives 0.0003 μg E2 (20 mice). The amount (as a percentage of inoculated tumours) and size of the tumours developed are determined at different times in the course of the treatment. At the end of the treatment (day 92), the animals are sacrificed and weighed. […]

tumour cells = assay: biochemical and pharmacological studies illustrated above (binding and antiproliferative tests)
Procedure: The membranes were prepared as follows: 10 MCF-7 cells are homogenized for 10 seconds on a Polytron® in 10 ml of Hepes® buffer pH=7.4 containing: 210 mM D-mannitol, 70 mM sucrose, 1 mM EDTA, 0.3 mM PMSF. The homogenate is centrifuged at 650 xg for 15 minutes and the supernatant is then taken up and centrifuged for 1 at 100,000 xg. The pellet is resuspended in Tris-HCl buffer pH=7.4 at a concentration of 1 mg/ml and stored at-70° C. The total binding is carried out in a 5 ml tube into which the following are introduced:
The non-specific binding is performed by adding 25 μl of 10^-5 M SR 31747 to the above solution (final volume 250 μl) and then incubating for 30 at 25° C. The free and bound fractions are separated by placing 200 μl on a column of 1 ml of Sephadex® LH 20 and the radioactivity is then counted on the first 2 ml obtained by eluting the column with 50 mM Tris buffer ph=7.4.
The 5 day period which was selected corresponds to the optimum time for the activity. After culturing for 5 days, the proliferation of the cells is measured by the test described above. The optical density at 570 nm is measured. […] The intensity of the coloration is proportional to the quantity of live cells.

human myeloma U266 = assay: MTT colorimetric proliferation test, 5 days; type: cell-based; details: U-266, 120 h, read-out: percentage of cell proliferation relative to the untreated control taken as 100%
Procedure: (§1) Among other cells used, the following lines were routinely cultured in RPMI medium supplemented with 10% foetal calf serum (FCS):
(§2) The antitumour activity is measured according to the colorimetry method using MTT, 3-(4,5-dimethylthiazole-2,5-diphenyltetrazolium) bromide as described by Mosmann T., Journ. of Im. Methods; 1983, 65, 55.
(§3) This colorimetric assay makes it possible to measure quantitatively the antitumour activity of a solution containing a compound used according to the invention.
(§4) According to the procedure used, the suspended cells (such as the myeloma cells) are inoculated at 2×10^3 cells/ml in 1 ml wells in defined medium. The adherent cells (such as the MCF-7 cells) are inoculated at 5×10^4 cells/ml in 1 ml wells in RPMI medium+0.5% FCS overnight. The next day, the cell carpet is washed twice and replaced by the defined medium.
(§5) The defined medium corresponds to: RPMI+10 μg/ml insulin+10 μg/ml human transferrin.
(§6) In order to carry out this test, cells are maintained in the presence of the solution containing a compound used according to the invention for 5 days, and the MTT is then added to the culture medium.
(§7) The 5 day period which was selected corresponds to the optimum time for the activity. After culturing for 5 days, the proliferation of the cells is measured by the test described above. The optical density at 570 nm is measured. A blue coloration develops in the wells where the cells are still alive. The intensity of the coloration is proportional to the quantity of live cells.

human myeloma RPMI 8226 = assay: MTT colorimetric proliferation test, 5 days; type: cell-based; details: 120 h, read-out: percentage of cell proliferation relative to the untreated control taken as 100%
Procedure: as §1, §2, §3, §4, §5, §6, §7

MCF7 p23-25 = assay: proliferation of mammary epithelial cells, IC50 after 6 days; type: cell-based; details: Homo sapiens, MCF7, 144 h, 6 days of treatment
Procedure: Another study was also performed in order to determine the effect of SR 31747 on the in vitro and in vivo growth of mammary and prostate epithelial tumour cells.
The study consisted in evaluating the potential antitumour activity of SR 31747 on the growth of a variety of cancerous breast epithelial lines. The study is carried out in vitro on cell cultures, as well as in vivo after inoculation of tumoral mammary lines in "nude" athymic mice.
The cell lines which were used are as follows:
The hormone-sensitive MCF-7 line originates from a pleural effusion of a breast adenocarcinoma. The antioestrogen-resistant MCF-7LY2 cells were obtained from the MCF-7LCC1 and MCF-7LCC2 lines were developed in nude mice, after inoculation of the MCF-7 cells. The two lines are oestrogen-independent. The MCF-7CC2 cells are also antioestrogen-resistant. The MCF-7AZTD5 line is derived from the MCF-7 line after stable transfection with the H-ras oncogene. The MCF-7AZTD5 cells are antioestrogen-resistant in vitro. All of these lines are maintained on DMEM/F12 (1/1, vol/vol) containing 10% decomplemented foetal calf serum and 16 ng/ml of human insulin. The MCF-7LCC2 line is cultured in the permanent presence of 10^-7 M hydroxytamoxifen. The MDA-MB231 tumoral mammary epithelial cells are oestrogen- and antioestrogen-insensitive. They are cultured in L15 medium supplemented with 10% FCS, 1% essential amino acids and 10 μg/ml of human insulin.
All the lines are maintained at 37° C. in a humid air/CO2 (95%/5%) atmosphere, except for the MDA-MB231 cells which are cultured in the absence of CO2. THe cell lines are checked regularly free of mycoplasms.
Table B--Effect of SR 31747 on the proliferation of mammary epithelial cells. Determination of the IC50 after 6 days of treatment--medium changed every 48 hours

[1] = tested on: human mammary carcinoma MCF-7; assay: MTT colorimetric proliferation test, 5 days; type: cell-based; details: MCF7, 120 h, read-out: percentage of cell proliferation relative to the untreated control taken as 100%
Procedure: as §1
human mammary carcinoma MCF-7
as §2, §3, §4, §5, §6, §7

- IC50 (MCF7 p23-25; MCF7 p23-25, 0.1% FCS): 2 nM
- IC50 (MCF7 p23-25; MCF7 p23-25, 0.5% FCS): 100 nM
Structure (SMILES): CCN(C/C=C\c1ccc(C2CCCCC2)c(Cl)c1)C1CCCCC1 [SR 31747, cis-N-Cyclohexyl-N-ethyl [3-(3-chloro-4-cyclo-hexylphenyl)allyl]amine]
- size, weight and frequency of tumours developed (MDA-MB231 cells): tendency to reduce the size, weight and frequency of tumours
- activity in the biochemical and pharmacological studies (tumour cells): best activity
- activity at 10 pM (human myeloma U266; U266, 10 pM): 100%
- activity at 0.0001 µM (human myeloma U266; U266, 100 pM): 100%
- activity at 0.001 µM (human myeloma U266; U266, 1 nM): 95%
- activity at 0.01 µM (human myeloma U266; U266, 10 nM): 82%
- activity at 0.1 µM (human myeloma U266; U266, 100 nM): 67%
- activity at 1 µM (human myeloma U266; U266, 1 μM): 52%
- activity at 10 µM (human myeloma U266; U266, 10 μM): 11%
- activity at 10 pM (human myeloma RPMI 8226; RPMI 8226, 10 pM): 100%
- activity at 0.0001 µM (human myeloma RPMI 8226; RPMI 8226, 100 pM): 91%
- activity at 0.001 µM (human myeloma RPMI 8226; RPMI 8226, 1 nM): 79%
- activity at 0.01 µM (human myeloma RPMI 8226; RPMI 8226, 10 nM): 66%
- activity at 0.1 µM (human myeloma RPMI 8226; RPMI 8226, 100 nM): 54%
- activity at 1 µM (human myeloma RPMI 8226; RPMI 8226, 1 μM): 9%
- activity at 10 µM (human myeloma RPMI 8226; RPMI 8226, 10 μM): 6%
- activity at 10 pM ([1]; MCF-7, 10 pM): 100%
- activity at 0.0001 µM ([1]; MCF-7, 100 pM): 100%
- activity at 0.001 µM ([1]; MCF-7, 1 nM): 83%
- activity at 0.01 µM ([1]; MCF-7, 10 nM): 75%
- activity at 0.1 µM ([1]; MCF-7, 100 nM): 58%
- activity at 1 µM ([1]; MCF-7, 1 μM): 34%
- activity at 10 µM ([1]; MCF-7, 10 μM): 5%
